# Experimental data: patent US20080200454A1, “CARBON-LINKED TETRAHYDRO-PYRAZOLO-PYRIDINE MODULATORS OF CATHEPSIN S” (priority 2007, published 2008)
# Structures can show the parent of a compound that is named as a salt. Where two headings read alike, the source gives them in different places.
# Biological target: Recombinant human cathepsin S (CatS) (Homo sapiens, UniProt P25774)
# Assay: Recombinant human cathepsin S (CatS) inhibition assay, fluorogenic substrate Z-Valine-Valine-Arginine-AMC;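 further: Baculovirus-expressed CatS in pH 5.0 sodium acetate buffer with DTT and NaCl, fluorescence read each minute over 20 min, inhibition derived from rate slope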
# Chain of Recombinant human cathepsin S (CatS) (P25774 115-331): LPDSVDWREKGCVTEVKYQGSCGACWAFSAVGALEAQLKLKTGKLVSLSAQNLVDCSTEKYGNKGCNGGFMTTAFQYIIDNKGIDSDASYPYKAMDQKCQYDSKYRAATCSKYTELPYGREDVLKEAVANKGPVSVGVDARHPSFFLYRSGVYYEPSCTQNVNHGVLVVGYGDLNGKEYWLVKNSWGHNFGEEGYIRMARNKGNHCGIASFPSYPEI
IC50,Structure (SMILES),IC50 (CatS IC50)
11400 nM,"CC(=O)NCCCc1cc(-c2nn(CCCN3CCOCC3)c3c2CN(S(C)(=O)=O)CC3)ccc1Cl [Example 87, N-(3-{2-Chloro-5-[5-methanesulfonyl-1-(3-morpholin-4-yl-propyl)-4,5,6,7-tetrahydro-1H-pyrazolo[4,3-c]pyridin-3-yl]-phenyl}-propyl)-acetamide]",
520 nM,"CS(=O)(=O)N1CCc2c(c(-c3ccc(Cl)c(CCCNS(=O)(=O)c4ccccc4C(=O)O)c3)nn2CCCN2CCC(N3CCCC3=O)CC2)C1 [Example 88, 2-{3-[2-Chloro-5-(5-methanesulfonyl-1-{3-[4-(2-oxo-pyrrolidin-1-yl)-piperidin-1-yl]-propyl}-4,5,6,7-tetrahydro-1H-pyrazolo[4,3-c]pyridin-3-yl)-phenyl]-propylsulfamoyl}-benzoic acid, trifluoroacetic acid salt]",
290 nM,"CS(=O)(=O)N1CCc2c(c(-c3ccc(Cl)c(CCCNS(=O)(=O)c4ccccc4[N+](=O)[O-])c3)nn2CCCN2CCC(N3CCCC3=O)CC2)C1 [Example 89, N-{3-[2-Chloro-5-(5-methanesulfonyl-1-{3-[4-(2-oxo-pyrrolidin-1-yl)-piperidin-1-yl]-propyl}-4,5,6,7-tetrahydro-1H-pyrazolo[4,3-c]pyridin-3-yl)-phenyl]-propyl}-2-nitro-benzenesulfonamide]",
420 nM,"CS(=O)(=O)N1CCc2c(c(-c3ccc(Cl)c(CCCNS(=O)(=O)c4cccc(Cl)c4)c3)nn2CCCN2CCC(N3CCCC3=O)CC2)C1 [Example 90, 3-Chloro-N-{3-[2-chloro-5-(5-methanesulfonyl-1-{3-[4-(2-oxo-pyrrolidin-1-yl)-piperidin-1-yl]-propyl}-4,5,6,7-tetrahydro-1H-pyrazolo[4,3-c]pyridin-3-yl)-phenyl]-propyl}-benzenesulfonamide]",
940 nM,"CS(=O)(=O)N1CCc2c(c(-c3ccc(Cl)c(CCCNS(=O)(=O)c4ccccc4)c3)nn2CCCN2CCC(N3CCCC3=O)CC2)C1 [Example 91, N-{3-[2-Chloro-5-(5-methanesulfonyl-1-{3-[4-(2-oxo-pyrrolidin-1-yl)-piperidin-1-yl]-propyl}-4,5,6,7-tetrahydro-1H-pyrazolo[4,3-c]pyridin-3-yl)-phenyl]-propyl}-benzenesulfonamide]",
1040 nM,"Cc1ccc(S(=O)(=O)NCCCc2cc(-c3nn(CCCN4CCC(N5CCCC5=O)CC4)c4c3CN(S(C)(=O)=O)CC4)ccc2Cl)cc1 [Example 92, N-{3-[2-Chloro-5-(5-methanesulfonyl-1-{3-[4-(2-oxo-pyrrolidin-1-yl)-piperidin-1-yl]-propyl}-4,5,6,7-tetrahydro-1H-pyrazolo[4,3-c]pyridin-3-yl)-phenyl]-propyl}-4-methyl-benzenesulfonamide]",
1050 nM,"COc1cccc(S(=O)(=O)NCCCc2cc(-c3nn(CCCN4CCC(N5CCCC5=O)CC4)c4c3CN(S(C)(=O)=O)CC4)ccc2Cl)c1 [Example 93, N-{3-[2-Chloro-5-(5-methanesulfonyl-1-{3-[4-(2-oxo-pyrrolidin-1-yl)-piperidin-1-yl]-propyl}-4,5,6,7-tetrahydro-1H-pyrazolo[4,3-c]pyridin-3-yl)-phenyl]-propyl}-3-methoxy-benzenesulfonamide]",
1100 nM,"Cc1ccccc1S(=O)(=O)NCCCc1cc(-c2nn(CCCN3CCC(N4CCCC4=O)CC3)c3c2CN(S(C)(=O)=O)CC3)ccc1Cl [Example 94, N-{3-[2-Chloro-5-(5-methanesulfonyl-1-{3-[4-(2-oxo-pyrrolidin-1-yl)-piperidin-1-yl]-propyl}-4,5,6,7-tetrahydro-1H-pyrazolo[4,3-c]pyridin-3-yl)-phenyl]-propyl}-2-methyl-benzenesulfonamide]",
1150 nM,"CS(=O)(=O)N1CCc2c(c(-c3ccc(Cl)c(CCCNS(=O)(=O)c4ccccc4Cl)c3)nn2CCCN2CCC(N3CCCC3=O)CC2)C1 [Example 95, 2-Chloro-N-{3-[2-chloro-5-(5-methanesulfonyl-1-{3-[4-(2-oxo-pyrrolidin-1-yl)-piperidin-1-yl]-propyl}-4,5,6,7-tetrahydro-1H-pyrazolo[4,3-c]pyridin-3-yl)-phenyl]-propyl}-benzenesulfonamide]",
1200 nM,"CS(=O)(=O)N1CCc2c(c(-c3ccc(Cl)c(CCCNS(=O)(=O)c4cccc([N+](=O)[O-])c4)c3)nn2CCCN2CCC(N3CCCC3=O)CC2)C1 [Example 96, N-{3-[2-Chloro-5-(5-methanesulfonyl-1-{3-[4-(2-oxo-pyrrolidin-1-yl)-piperidin-1-yl]-propyl}-4,5,6,7-tetrahydro-1H-pyrazolo[4,3-c]pyridin-3-yl)-phenyl]-propyl}-3-nitro-benzenesulfonamide]",
1310 nM,"Cc1cccc(S(=O)(=O)NCCCc2cc(-c3nn(CCCN4CCC(N5CCCC5=O)CC4)c4c3CN(S(C)(=O)=O)CC4)ccc2Cl)c1 [Example 97, N-{3-[2-Chloro-5-(5-methanesulfonyl-1-{3-[4-(2-oxo-pyrrolidin-1-yl)-piperidin-1-yl]-propyl}-4,5,6,7-tetrahydro-1H-pyrazolo[4,3-c]pyridin-3-yl)-phenyl]-propyl}-3-methyl-benzenesulfonamide]",
1410 nM,"CS(=O)(=O)N1CCc2c(c(-c3ccc(Cl)c(CCCNS(=O)(=O)c4cccc(C#N)c4)c3)nn2CCCN2CCC(N3CCCC3=O)CC2)C1 [Example 98, N-{3-[2-Chloro-5-(5-methanesulfonyl-1-{3-[4-(2-oxo-pyrrolidin-1-yl)-piperidin-1-yl]-propyl}-4,5,6,7-tetrahydro-1H-pyrazolo[4,3-c]pyridin-3-yl)-phenyl]-propyl}-3-cyano-benzenesulfonamide]",
2450 nM,"CS(=O)(=O)c1cccc(S(=O)(=O)NCCCc2cc(-c3nn(CCCN4CCC(N5CCCC5=O)CC4)c4c3CN(S(C)(=O)=O)CC4)ccc2Cl)c1 [Example 99, N-{3-[2-Chloro-5-(5-methanesulfonyl-1-{3-[4-(2-oxo-pyrrolidin-1-yl)-piperidin-1-yl]-propyl}-4,5,6,7-tetrahydro-1H-pyrazolo[4,3-c]pyridin-3-yl)-phenyl]-propyl}-3-methanesulfonyl-benzenesulfonamide]",
2500 nM,"CS(=O)(=O)c1ccccc1S(=O)(=O)NCCCc1cc(-c2nn(CCCN3CCC(N4CCCC4=O)CC3)c3c2CN(S(C)(=O)=O)CC3)ccc1Cl [Example 100, N-{3-[2-Chloro-5-(5-methanesulfonyl-1-{3-[4-(2-oxo-pyrrolidin-1-yl)-piperidin-1-yl]-propyl}-4,5,6,7-tetrahydro-1H-pyrazolo[4,3-c]pyridin-3-yl)-phenyl]-propyl}-2-methanesulfonyl-benzenesulfonamide]",
2060 nM,"CS(=O)(=O)N1CCc2c(c(-c3ccc(Cl)c(CCCN4CCCC4)c3)nn2CCCN2CCC(N3CCCC3=O)CC2)C1 [Example 101, 1-[1-(3-{3-[4-Chloro-3-(3-pyrrolidin-1-yl-propyl)-phenyl]-5-methanesulfonyl-4,5,6,7-tetrahydro-pyrazolo[4,3-c]pyridin-1-yl}-propyl)-piperidin-4-yl]-pyrrolidin-2-one]",
840 nM,"CS(=O)(=O)N1CCc2c(c(-c3ccc(Cl)c(CCCN4CCCCC4)c3)nn2CCCN2CCC(N3CCCC3=O)CC2)C1 [Example 102, 1-[1-(3-{3-[4-Chloro-3-(3-piperidin-1-yl-propyl)-phenyl]-5-methanesulfonyl-4,5,6,7-tetrahydro-pyrazolo[4,3-c]pyridin-1-yl}-propyl)-piperidin-4-yl]-pyrrolidin-2-one]",
310 nM,"CC1CCCN(CCCc2cc(-c3nn(CCCN4CCC(N5CCCC5=O)CC4)c4c3CN(S(C)(=O)=O)CC4)ccc2Cl)C1 (centres unmarked) [Example 103, 1-{1-[3-(3-{4-Chloro-3-[3-(3-methyl-piperidin-1-yl)-propyl]-phenyl}-5-methanesulfonyl-4,5,6,7-tetrahydro-pyrazolo[4,3-c]pyridin-1-yl)-propyl]-piperidin-4-yl}-pyrrolidin-2-one]",
,"CS(=O)(=O)N1CCc2c(c(-c3ccc(Cl)c(CCCN4CCC(F)(F)CC4)c3)nn2CCCN2CCC(N3CCCC3=O)CC2)C1 [Example 104, 1-{1-[3-(3-{4-Chloro-3-[3-(4,4-difluoro-piperidin-1-yl)-propyl]-phenyl}-5-methanesulfonyl-4,5,6,7-tetrahydro-pyrazolo[4,3-c]pyridin-1-yl)-propyl]-piperidin-4-yl}-pyrrolidin-2-one]",930 nM
1430 nM,"CS(=O)(=O)N1CCc2c(c(-c3ccc(Cl)c(CCCN4CCOCC4)c3)nn2CCCN2CCC(N3CCCC3=O)CC2)C1 [Example 105, 1-[1-(3-{3-[4-Chloro-3-(3-morpholin-4-yl-propyl)-phenyl]-5-methanesulfonyl-4,5,6,7-tetrahydro-pyrazolo[4,3-c]pyridin-1-yl}-propyl)-piperidin-4-yl]-pyrrolidin-2-one]",
4420 nM,"CN1CCN(CCCc2cc(-c3nn(CCCN4CCC(N5CCCC5=O)CC4)c4c3CN(S(C)(=O)=O)CC4)ccc2Cl)CC1 [Example 106, 1-{1-[3-(3-{4-Chloro-3-[3-(4-methyl-piperazin-1-yl)-propyl]-phenyl}-5-methanesulfonyl-4,5,6,7-tetrahydro-pyrazolo[4,3-c]pyridin-1-yl)-propyl]-piperidin-4-yl}-pyrrolidin-2-one]",
500 nM,"CS(=O)(=O)N1CCc2c(c(-c3ccc(Cl)c(CCCN4CCCCCC4)c3)nn2CCCN2CCC(N3CCCC3=O)CC2)C1 [Example 107, 1-[1-(3-{3-[3-(3-Azepan-1-yl-propyl)-4-chloro-phenyl]-5-methanesulfonyl-4,5,6,7-tetrahydro-pyrazolo[4,3-c]pyridin-1-yl}-propyl)-piperidin-4-yl]-pyrrolidin-2-one]",
660 nM,"CS(=O)(=O)N1CCc2c(c(-c3ccc(Cl)c(CCCNC4CCCC4)c3)nn2CCCN2CCC(N3CCCC3=O)CC2)C1 [Example 108, 1-[1-(3-{3-[4-Chloro-3-(3-cyclopentylamino-propyl)-phenyl]-5-methanesulfonyl-4,5,6,7-tetrahydro-pyrazolo[4,3-c]pyridin-1-yl}-propyl)-piperidin-4-yl]-pyrrolidin-2-one]",
2270 nM,"CS(=O)(=O)N1CCc2c(c(-c3ccc(Cl)c(CCCCN4CCCC4)c3)nn2CCCN2CCC(N3CCCC3=O)CC2)C1 [Example 109, 1-[1-(3-{3-[4-Chloro-3-(4-pyrrolidin-1-yl-butyl)-phenyl]-5-methanesulfonyl-4,5,6,7-tetrahydro-pyrazolo[4,3-c]pyridin-1-yl}-propyl)-piperidin-4-yl]-pyrrolidin-2-one]",
